Assay results published in publication PMC8148468, “Shikimic acid protects skin cells from UV-induced senescence through activation of the NAD+-dependent deacetylase SIRT1” (Aging (Albany NY), 2021).

Assays:
[1] = tested on: primary human dermal fibroblasts (HDFs); details: female, human
Description: In our efforts to identify novel factors that could prevent skin cell senescence, we developed a screening process to identify new modulators of the protective role of sirtuins in UV-induced senescence. For this purpose, we established a culture of primary human dermal fibroblasts (HDFs). […] Our first step in the screening was to establish the optimal concentrations of these compounds in the case of HDFs. […] Once established, we took these parameters into account to decide the specific working range of concentrations for each compound.
Human dermal fibroblasts (HDFs) (Promocell, Germany) from 40-year old Caucasian women were used as the in vitro model for compound viability and efficacy screening. Cells were cultured in Dulbecco's modified eagle medium (DMEM) low glucose (Biowest, France) supplemented with 10% fetal bovine serum (FBS) (Capricorn Scientific, Germany) and 10 U/mL penicillin/streptomycin (Biowest, France) in a humidified incubator at 37° C and 5% CO2. For cell passage, cells at 80% confluence were trypsinized and plated at 60% confluence. Cells between passage 13 and 18 were used for the assays. For the SIRT1 in vitro assay, HEK293 cells (ATCC, USA), used to transfect and immunoprecipitate SIRT1 protein, were grown in DMEM high glucose (Thermo Fisher Scientific, USA), supplemented with 10% FBS in a humidified incubator at 37° C and 5% CO2. The following experiments were all performed in triplicate.
The protocol for senescence induction using UVB irradiation is described in the Supplementary Methods. SA-β-Gal staining, WST-1, sulforhodamine B (SRB) and trypan blue assays were performed as previously described. For the siRNA experiments, the protocol for senescence induction using UVB irradiation was the same as in the Supplementary Methods. Specific siRNA (Horizon discovery, UK) for SIRT1, SIRT2, SIRT6, BiP or scramble siRNA were incubated for 6 hours before each irradiation step.

γH2AX = γH2AX immunofluorescence assay; format: cell-based, human; details: UVB irradiation, SA 10, 25, 50 mM
Procedure: (§1) Figure 4 (A) SRB and Trypan blue cell viability assays performed in cells treated with or without Shikimic acid (5, 10, 25 and 50 mM) for 24h. (B) Apoptosis detection using the Annexin V-FITC/PI double staining followed by flow cytometry in non-irradiated and non-treated cells, irradiated and non-treated cells and irradiated cells treated with Shikimic acid (10, 25 and 50 mM). (C) Representation and statistical analysis of the percentage of apoptotic cells in each of the conditions analyzed. (D) Cell cycle analysis using PI staining followed by flow cytometry. (E) Relative p16^INK4a mRNA levels monitored by qPCR in the indicated conditions. Student T-test, *p<0.05. (F) Immunofluorescence of γH2AX in non-irradiated and non-treated cells, irradiated and non-treated cells and irradiated cells treated with Shikimic acid (10, 25 and 50 mM). […]
The staining and detection of γH2AX foci by immunofluorescence was performed as previously described. Slides were analyzed by confocal microscopy using a Confocal Leica SP5 microscope (Leica Microsystems) with a 63x objective.

p16^INK4a = experiment: p16INK4a mRNA levels (qPCR); format: cell-based, human; details: UVB-irradiated HDF, SA treatment
Procedure: as §1, with “*p<0.05.” for “*p<0.05. (F) Immunofluorescence of γH2AX in non-irradiated and non-treated cells, irradiated and non-treated cells and irradiated cells treated with Shikimic acid (10, 25 and 50 mM).”
RNA was extracted from cell pellets using the Total RNA Purification Kit (Norgen, Canada), according to the manufacturer’s protocol. Extracted RNA was quantified using a NanoDrop® ND-1000 UV-Vis Spectrophotometer (Thermo Fisher Scientific, USA) and 300 ng of RNA were retrotranscribed to cDNA using the PrimeScriptTM RT reagent kit (Takara Bio Inc., Japan). cDNA was diluted 1/10 in ultrapure water and qPCR mix was prepared by adding cDNA (12 ng), SYBR green supermix (Bio Rad, USA), forward and reverse primers (0.2μM). […] The results were analyzed with Bio-Rad CFX Manager software. […]

SIRT1 = SIRT1 mRNA and protein levels in HDF; format: cell-based, human; details: Shikimic acid 5, 10, 25, 50 mM, 24h
Procedure: RNA was extracted from cell pellets using the Total RNA Purification Kit (Norgen, Canada), according to the manufacturer’s protocol. Extracted RNA was quantified using a NanoDrop® ND-1000 UV-Vis Spectrophotometer (Thermo Fisher Scientific, USA) and 300 ng of RNA were retrotranscribed to cDNA using the PrimeScriptTM RT reagent kit (Takara Bio Inc., Japan). cDNA was diluted 1/10 in ultrapure water and qPCR mix was prepared by adding cDNA (12 ng), SYBR green supermix (Bio Rad, USA), forward and reverse primers (0.2μM). The primers and their respective sequences are listed in Supplementary Table 1. qPCR protocol included one step at 95° C for 30 s, 40 cycles at 95° C for 10s, and 60° C for 1min. The results were analyzed with Bio-Rad CFX Manager software. BACT was used as a housekeeping gene to normalize gene expression.
Protein levels were analyzed as previously described. Cells were directly lysed in 1x Laemmli Buffer (Bio-Rad, USA), incubated at 95° C and centrifuged. Supernatant was subjected to SDS-polyacrylamide gel electrophoresis, and successive steps were performed as described. The list of antibodies used is included in Supplementary Table 2.
Student T-test, *p<0.05, **p<0.01, ***p<0.001.
(1 picture or pasted object on this page, not shown here)

O=C(O)C1=C[C@@H](O)[C@@H](O)[C@H](O)C1 [Shikimic acid]
LD50 [1]: 58.44 mM
Max. non-cyt. doses [1]: 25 mM
accumulation of DNA damage (γH2AX) (γH2AX): did not alter the accumulation of DNA damage
p16INK4a mRNA levels (p16^INK4a): downregulation of the cell cycle regulator p16
SIRT1 gene expression and protein levels (SIRT1): did not observe any significant correlation with gene expression and protein levels
